Laboratory results taken from ChEMBL document CHEMBL4819157, “Synthesis and biological evaluation of novel ligustrazine-chalcone derivatives as potential anti-triple negative breast cancer agents” (Bioorg Med Chem Lett, 2021).
Calls of active or inactive are those of the source. The calls are words filed in the database; no cut-off is given here.

Key:
MDA-MB-231 [1] = experiment: Antiproliferation activity against human MDA-MB-231 cells assessed as reduction in cell viability after 72 hrs by CCK8 assay; format: functional, cell-based; conditions: MDA-MB-231, 72 h
MCF7 [2] = experiment: Antiproliferation activity against human MCF-7 cells assessed as reduction in cell viability after 72 hrs by CCK8 assay; format: functional, cell-based; conditions: MCF7, 72 h
A549 = experiment: Antiproliferation activity against human A549 cells assessed as reduction in cell viability after 72 hrs by CCK8 assay; format: functional, cell-based; conditions: A549, 72 h
HepG2 = experiment: Antiproliferation activity against human HepG2 cells assessed as reduction in cell viability after 72 hrs by CCK8 assay; format: functional, cell-based; conditions: HepG2, 72 h
MCF-10A = experiment: Cytotoxicity against human MCF-10A cells assessed as reduction in cell viability after 72 hrs by CCK8 assay; format: cell-based
HUVEC = experiment: Cytotoxicity against human HUVEC cells assessed as reduction in cell viability after 72 hrs by CCK8 assay; format: cell-based
MDA-MB-231 [3] = experiment: Inhibition of colony formation in human MDA-MB-231 cells at 0.25 to 2 times of IC50 concentration incubated for 48 hrs by plate colony counting assay; format: functional, cell-based
MCF7 [4] = experiment: Inhibition of colony formation in human MCF-7 cells at 0.25 to 2 times of IC50 concentration incubated for 48 hrs by plate colony counting assay; format: functional, cell-based
MDA-MB-231 [5] = experiment: Inhibition of colony formation in human MDA-MB-231 cells at IC50 concentration upto 72 hrs by plate colony counting assay; format: functional, cell-based; conditions: time hrs <=72, TDE = time-dependent effect
MCF7 [6] = experiment: Inhibition of colony formation in human MCF-7 cells at IC50 concentration upto 72 hrs by plate colony counting assay; format: functional, cell-based; conditions: time hrs <=72, TDE = time-dependent effect
MDA-MB-231 [7] = experiment: Inhibition of cell migration in human MDA-MB-231 cells 0.5 to 2 times of IC50 incubated up to 48 hrs by scratch wound healing assay; format: functional, cell-based; conditions: time hrs <=48
MCF7 [8] = experiment: Inhibition of cell migration in human MCF-7 cells 0.5 to 2 times of IC50 incubated up to 48 hrs by scratch wound healing assay; format: functional, cell-based; conditions: time hrs <=48
MDA-MB-231 [9] = experiment: Induction of apoptosis in human MDA-MB-231 cells assessed as early apoptotic cells at 0.5 times of IC50 by Annexin V-FITC/PI double staining based flow cytometry analysis (reference value: 6.64%); format: functional
MDA-MB-231 [10] = experiment: Induction of apoptosis in human MDA-MB-231 cells assessed as late apoptotic cells at 0.5 times of IC50 by Annexin V-FITC/PI double staining based flow cytometry analysis (reference value: 0.00%); format: functional
MDA-MB-231 [11] = experiment: Induction of apoptosis in human MDA-MB-231 cells assessed as necrotic cells at 0.5 times of IC50 by Annexin V-FITC/PI double staining based flow cytometry analysis (reference value: 0.02%); format: functional
MDA-MB-231 [12] = experiment: Induction of apoptosis in human MDA-MB-231 cells assessed as viable cells at 0.5 times of IC50 by Annexin V-FITC/PI double staining based flow cytometry analysis (reference value: 93.34%); format: functional
MDA-MB-231 [13] = experiment: Induction of apoptosis in human MDA-MB-231 cells assessed as early apoptotic cells at IC50 by Annexin V-FITC/PI double staining based flow cytometry analysis (reference value: 6.64%); format: functional
MDA-MB-231 [14] = experiment: Induction of apoptosis in human MDA-MB-231 cells assessed as late apoptotic cells at IC50 by Annexin V-FITC/PI double staining based flow cytometry analysis (reference value: 0.00%); format: functional
MDA-MB-231 [15] = experiment: Induction of apoptosis in human MDA-MB-231 cells assessed as necrotic cells at IC50 by Annexin V-FITC/PI double staining based flow cytometry analysis (reference value: 0.02%); format: functional
MDA-MB-231 [16] = experiment: Induction of apoptosis in human MDA-MB-231 cells assessed as viable cells at IC50 by Annexin V-FITC/PI double staining based flow cytometry analysis (reference value: 93.34%); format: functional
MDA-MB-231 [17] = experiment: Induction of apoptosis in human MDA-MB-231 cells assessed as early apoptotic cells at 2 times of IC50 by Annexin V-FITC/PI double staining based flow cytometry analysis (reference value: 6.64%); format: functional
MDA-MB-231 [18] = experiment: Induction of apoptosis in human MDA-MB-231 cells assessed as late apoptotic cells at 2 times of IC50 by Annexin V-FITC/PI double staining based flow cytometry analysis (reference value: 0.00%); format: functional
MDA-MB-231 [19] = experiment: Induction of apoptosis in human MDA-MB-231 cells assessed as necrotic cells at 2 times of IC50 by Annexin V-FITC/PI double staining based flow cytometry analysis (reference value: 0.02%); format: functional
MDA-MB-231 [20] = experiment: Induction of apoptosis in human MDA-MB-231 cells assessed as viable cells at 2 times of IC50 by Annexin V-FITC/PI double staining based flow cytometry analysis (reference value: 93.34%); format: functional
MDA-MB-231 [21] = experiment: Induction of cell cycle arrest in human […] cells assessed as increase in accumulation of cells at G0/G1 phase at 0.5 to 2 times of IC50 after 48 hrs by propidium iodide staining-based flow cytometric analysis; format: functional
MDA-MB-231 [22] = experiment: Induction of cell cycle arrest in human […] cells assessed as decrease in accumulation of cells at S phase at 0.5 to 2 times of IC50 after 48 hrs by propidium iodide staining-based flow cytometric analysis; format: functional
MDA-MB-231 [23] = experiment: Induction of cell cycle arrest in human […] cells assessed as decrease in accumulation of cells at G2/M phase at 0.5 to 2 times of IC50 after 48 hrs by propidium iodide staining-based flow cytometric analysis; format: functional
[24] = Toxicity in mouse xenografted with human MDA-MB-468 cells assessed as effect on body weight at 25 to 75 mg/kg; format: organism-based; conditions: in vivo, dose 25-75 mg/kg
[25] = Antitumour activity against human MDA-MB-468 cells xenografted in mouse assessed as reduction in Ki67 positive cells at 25 mg/kg, by immunohistochemical analysis (reference value: 76.50 +/- 5.28%); format: functional, MDA-MB-231; parameters: scale not given: the % may be the effect or the level left
[26] = Antitumour activity against human MDA-MB-468 cells xenografted in mouse assessed as reduction in Ki67 positive cells at 50 mg/kg, by immunohistochemical analysis (reference value: 76.50 +/- 5.28%); format: functional, MDA-MB-231; parameters: scale not given: the % may be the effect or the level left
[27] = Antitumour activity against human MDA-MB-468 cells xenografted in mouse assessed as reduction in Ki67 positive cells at 75 mg/kg, by immunohistochemical analysis (reference value: 76.50 +/- 5.28%); format: functional, MDA-MB-231; parameters: scale not given: the % may be the effect or the level left

Cc1nc(C)c(C)nc1C [LIGUSTRAZINE]
IC50 (MDA-MB-231 [1]): 20.4 µM | IC50 (MCF7 [2]): 29.9 µM | IC50 (A549): 36.5 µM | IC50 (HepG2): 38.2 µM

COc1ccc(C(=O)Nc2ccc(C(=O)/C=C/c3nc(C)c(C)nc3C)cc2)cc1OC
IC50 (MDA-MB-231 [1]): 3.36 µM | IC50 (MCF7 [2]): 1.66 µM | IC50 (A549): 5.06 µM | IC50 (HepG2): 2.56 µM

Cc1nc(C)c(/C=C/C(=O)c2ccc(NC(=O)c3ccc(F)cc3F)cc2)nc1C
IC50 (MDA-MB-231 [1]): 1.77 µM | IC50 (MCF7 [2]): 1.61 µM | IC50 (A549): 2.45 µM | IC50 (HepG2): 2.99 µM

Cc1nc(C)c(/C=C/C(=O)c2ccc(NC(=O)c3ccc(F)cc3)cc2)nc1C
IC50 (MDA-MB-231 [1]): 1.67 µM | IC50 (MCF7 [2]): 1.54 µM | IC50 (A549): 4.48 µM | IC50 (HepG2): 2.25 µM | IC50 (MCF-10A): 42.9 µM | IC50 (HUVEC): 32.7 µM | inhibition (MDA-MB-231 [3]): Dose-Dependent Effect | inhibition (MCF7 [4]): Dose-Dependent Effect | inhibition (MDA-MB-231 [5]): Tde | inhibition (MCF7 [6]): Tde | inhibition (MDA-MB-231 [7]): Dose-Dependent Effect | inhibition (MCF7 [8]): Dose-Dependent Effect

Cc1ccc(C(=O)Nc2ccc(C(=O)/C=C/c3nc(C)c(C)nc3C)cc2)cc1
IC50 (MDA-MB-231 [1]): 1.78 µM | IC50 (MCF7 [2]): 1.18 µM | IC50 (A549): 9.99 µM | IC50 (HepG2): 5.45 µM

O=C(/C=C/c1ccc(O)cc1)c1ccc(O)cc1O [ISOLIQUIRITIGENIN]
IC50 (MDA-MB-231 [1]): 10.9 µM | IC50 (MCF7 [2]): 17.7 µM | IC50 (A549): 52.6 µM | IC50 (HepG2): 27.7 µM

COc1ccc(C(=O)Nc2ccc(C(=O)/C=C/c3nc(C)c(C)nc3C)cc2)cc1
IC50 (MDA-MB-231 [1]): 1.6 µM | IC50 (MCF7 [2]): 1.41 µM | IC50 (A549): 4.15 µM | IC50 (HepG2): 1.19 µM | IC50 (MCF-10A): 59.6 µM | IC50 (HUVEC): 29.2 µM | inhibition (MDA-MB-231 [3]): Dose-Dependent Effect | inhibition (MCF7 [4]): Dose-Dependent Effect | inhibition (MDA-MB-231 [5]): Tde | inhibition (MCF7 [6]): Tde | inhibition (MDA-MB-231 [7]): Dose-Dependent Effect | inhibition (MCF7 [8]): Dose-Dependent Effect | Activity (MDA-MB-231 [9]): 25.14% | Activity (MDA-MB-231 [10]): 0.65% | Activity (MDA-MB-231 [11]): 1.54% | Activity (MDA-MB-231 [12]): 72.66% | Activity (MDA-MB-231 [13]): 43.98% | Activity (MDA-MB-231 [14]): 8.62% | Activity (MDA-MB-231 [15]): 2.89% | Activity (MDA-MB-231 [16]): 44.51% | Activity (MDA-MB-231 [17]): 50.96% | Activity (MDA-MB-231 [18]): 15.92% | Activity (MDA-MB-231 [19]): 2.15% | Activity (MDA-MB-231 [20]): 30.97% | Activity (MDA-MB-231 [21]): Active | Activity (MDA-MB-231 [22]): Active | Activity (MDA-MB-231 [23]): Active | Activity [24]: Non-Toxic | Activity [25]: 19.51% | Activity [26]: 11.29% | Activity [27]: 8.95%

COc1cccc(OC)c1C(=O)Nc1ccc(C(=O)/C=C/c2nc(C)c(C)nc2C)cc1
IC50 (MDA-MB-231 [1]): 3.85 µM | IC50 (MCF7 [2]): 2.47 µM | IC50 (A549): 8.47 µM | IC50 (HepG2): 3.38 µM

O=c1[nH]cc(F)c(=O)[nH]1 [FLUOROURACIL]
IC50 (MDA-MB-231 [1]): 5.85 µM | IC50 (MCF7 [2]): 5.44 µM | IC50 (A549): 2.53 µM | IC50 (HepG2): 2.98 µM

Cc1nc(C)c(/C=C/C(=O)c2ccc(NC(=O)c3ccccc3F)cc2)nc1C
IC50 (MDA-MB-231 [1]): 1.98 µM | IC50 (MCF7 [2]): 1.27 µM | IC50 (A549): 7.39 µM | IC50 (HepG2): 2.04 µM

COc1cc(OC)cc(C(=O)Nc2ccc(C(=O)/C=C/c3nc(C)c(C)nc3C)cc2)c1
IC50 (MDA-MB-231 [1]): 11.6 µM | IC50 (MCF7 [2]): 6.27 µM | IC50 (A549): 10.2 µM | IC50 (HepG2): 11 µM

COc1cc2nccc(Oc3ccc(NC(=O)C4(C(=O)Nc5ccc(F)cc5)CC4)cc3)c2cc1OC [CABOZANTINIB]
IC50 (MDA-MB-231 [1]): 19.7 µM | IC50 (MCF7 [2]): 14.3 µM | IC50 (A549): 15.2 µM | IC50 (HepG2): 15.6 µM

COc1cc(C(=O)Nc2ccc(C(=O)/C=C/c3nc(C)c(C)nc3C)cc2)cc(OC)c1OC
IC50 (MDA-MB-231 [1]): 4.74 µM | IC50 (MCF7 [2]): 2.76 µM | IC50 (A549): 7.35 µM | IC50 (HepG2): 4.86 µM

Cc1nc(C)c(/C=C/C(=O)c2ccc(NC(=O)c3ccccc3)cc2)nc1C
IC50 (MDA-MB-231 [1]): 1.84 µM | IC50 (MCF7 [2]): 0.99 µM | IC50 (A549): 7.27 µM | IC50 (HepG2): 1.31 µM
